Test system: 3D InSight™ Human Islet Microtissues
Assay: Glucose-stimulated insulin secretion (GSIS) after 13 days of glucolipotoxicity (GLTX) induced islet injury
Assay type: cell-based
Settings: GSIS at 16.7 mM glucose, vs GLTX group

Row | Compound | glucose-stimulated insulin secretion (GSIS) (FIG. 3, long-term (13 days) treatment with 10 μM verapamil alone in glucolipotox medium) | glucose-stimulated insulin secretion (GSIS) (FIG. 2, long-term (13 days) treatment with 1 μM semaglutide alone in glucolipotox medium)
1 | COc1ccc(CCN(C)CCCC(C#N)(c2ccc(OC)c(OC)c2)C(C)C)cc1OC (centres unmarked) [verapamil] | has a positive influence on GSIS | 
2 | semaglutide |  | does not improve the GSIS
